Experiments:
[1] = target: GDP-bound NRAS wild-type protein (Homo sapiens, UniProt P01111); assay: Binding to NRAS by surface plasmon resonance (SPR), Single Cycle Kinetics; conditions: KD ratio NRAS/KRAS, class symbols
[2] = target: GDP-bound HRAS wild-type protein (Homo sapiens, UniProt P01112); assay: Binding to HRAS by surface plasmon resonance (SPR), Single Cycle Kinetics; conditions: KD ratio HRAS/KRAS, class symbols
Chain of GDP-bound HRAS wild-type protein (P01112 whole entry): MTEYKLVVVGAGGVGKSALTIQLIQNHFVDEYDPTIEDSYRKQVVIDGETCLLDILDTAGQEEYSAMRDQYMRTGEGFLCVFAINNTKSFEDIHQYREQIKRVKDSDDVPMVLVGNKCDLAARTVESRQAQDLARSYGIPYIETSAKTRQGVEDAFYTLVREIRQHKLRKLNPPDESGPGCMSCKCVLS

Chain of GDP-bound NRAS wild-type protein (P01111 whole entry): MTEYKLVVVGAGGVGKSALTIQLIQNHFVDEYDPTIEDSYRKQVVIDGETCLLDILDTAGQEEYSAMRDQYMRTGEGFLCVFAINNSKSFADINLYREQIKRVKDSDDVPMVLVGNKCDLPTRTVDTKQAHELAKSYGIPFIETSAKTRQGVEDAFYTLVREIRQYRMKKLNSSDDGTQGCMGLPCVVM

Row | Structure (SMILES) | NRAS/KRAS (ratio of KD value with respect to GDP-bound NRAS wild-type protein to KD value with respect to KRAS) [1] | HRAS/KRAS (ratio of KD value with respect to GDP-bound HRAS wild-type protein to KD value with respect to KRAS) [2]
1 | CCO[C@@H]1C[C@H]2C(=O)NC3(CCC3)C(=O)N(C)[C@@H](C3CCCC3)C(=O)N(C)[C@H](C(=O)N(C)C)CC(=O)N(C)[C@@H](CC3CCCC3)C(=O)N[C@@H]([C@@H](C)CC)C(=O)N(C)CC(=O)N(C)[C@H]3C/C=C\CCN(C3=O)[C@@H](Cc3ccc(C)cc3)C(=O)N(C)CC(=O)N[C@@H](CCc3cc(C)c(C(F)F)c(Cl)c3)C(=O)N2C1 [PP2677] | A (a compound having 10 or more and less than 20 is denoted as A) | A (a compound having 10 or more and less than 20 is denoted as A)
2 | CCO[C@@H]1C[C@H]2C(=O)NC3(CCC3)C(=O)N(C)[C@@H](C3CCCC3)C(=O)N(C)[C@H](C(=O)N(C)C)CC(=O)N(C)[C@@H](CC3CCCC3)C(=O)N[C@@H]([C@@H](C)CC)C(=O)N(C)CC(=O)N(C)[C@H]3C/C=C\CCN(C3=O)[C@@H](Cc3ccc(C)cc3)C(=O)N(C)CC(=O)N[C@@H](CCc3cc(Cl)c(C(F)(F)F)c(Cl)c3)C(=O)N2C1 [PP2679] | A (a compound having 10 or more and less than 20 is denoted as A) | A (a compound having 10 or more and less than 20 is denoted as A)
3 | CCO[C@@H]1C[C@H]2C(=O)NC3(CCC3)C(=O)N(C)[C@@H](C3CCCC3)C(=O)N(C)[C@H](C(=O)N(C)C)CC(=O)N(C)[C@@H](CC3CCCC3)C(=O)N[C@@H]([C@@H](C)CC)C(=O)N(C)CC(=O)N(C)[C@H]3C/C=C\CCN(C3=O)[C@@H](Cc3ccc(C)cc3)C(=O)N(C)CC(=O)N[C@@H](CCc3ccc(C(F)(F)F)c(C4CC4)c3)C(=O)N2C1 [PP2681] | A (a compound having 10 or more and less than 20 is denoted as A) | A (a compound having 10 or more and less than 20 is denoted as A)
4 | CCO[C@@H]1C[C@H]2C(=O)NC3(CCC3)C(=O)N(C)[C@@H](C3CCCC3)C(=O)N(C)[C@H](C(=O)N(C)C)CC(=O)N(C)[C@@H](CC3CCCC3)C(=O)N[C@@H]([C@@H](C)CC)C(=O)N(C)CC(=O)N(C)[C@H]3C/C=C\CCN(C3=O)[C@@H](Cc3ccc(C)cc3)C(=O)N(C)CC(=O)N[C@@H](CCc3ccc(C4CC4)c(F)c3)C(=O)N2C1 [PP2683] | A (a compound having 10 or more and less than 20 is denoted as A) | A (a compound having 10 or more and less than 20 is denoted as A)
5 | CCO[C@@H]1C[C@H]2C(=O)NC3(CCC3)C(=O)N(C)[C@@H](C3CCCC3)C(=O)N(C)[C@H](C(=O)N(C)C)CC(=O)N(C)[C@@H](CC3CCCC3)C(=O)N[C@@H]([C@@H](C)CC)C(=O)N(C)CC(=O)N(C)[C@H]3C/C=C\CCN(C3=O)[C@@H](Cc3ccc(C)cc3)C(=O)N(C)CC(=O)N[C@@H](CCc3ccc(C4CC4)c(Cl)c3)C(=O)N2C1 [PP2684] | A (a compound having 10 or more and less than 20 is denoted as A) | A (a compound having 10 or more and less than 20 is denoted as A)
6 | CCO[C@@H]1C[C@H]2C(=O)NC3(CCC3)C(=O)N(C)[C@@H](C3CCCC3)C(=O)N(C)[C@H](C(=O)N(C)C)CC(=O)N(C)[C@@H](CC3CCCC3)C(=O)N[C@@H]([C@@H](C)CC)C(=O)N(C)CC(=O)N(C)[C@H]3C/C=C\CCN(C3=O)[C@@H](Cc3ccc(C)cc3)C(=O)N(C)CC(=O)N[C@@H](CCc3ccc(C4CC4)c(C)c3)C(=O)N2C1 [PP2685] | A (a compound having 10 or more and less than 20 is denoted as A) | A (a compound having 10 or more and less than 20 is denoted as A)
7 | CCO[C@@H]1C[C@H]2C(=O)NC3(CCC3)C(=O)N(C)[C@@H](C3CCCC3)C(=O)N(C)[C@H](C(=O)N(C)C)CC(=O)N(C)[C@@H](CC3CCCC3)C(=O)N[C@@H]([C@@H](C)CC)C(=O)N(C)CC(=O)N(C)[C@H]3C/C=C\CCN(C3=O)[C@@H](Cc3ccc(C)cc3)C(=O)N(C)CC(=O)N[C@@H](CCc3ccc(CC)c(F)c3)C(=O)N2C1 [PP2686] | A (a compound having 10 or more and less than 20 is denoted as A) | A (a compound having 10 or more and less than 20 is denoted as A)
8 | CCC[C@H]1C(=O)N[C@@H]([C@@H](C)CC)C(=O)N(C)CC(=O)N(C)[C@H]2C/C=C\CCN(C2=O)[C@@H](Cc2ccc(C)cc2)C(=O)N(C)CC(=O)N[C@@H](CCc2cc(F)c(C(F)(F)F)c(F)c2)C(=O)N2C[C@H](OCC)C[C@H]2C(=O)NC2(CC(C)(C)C2)C(=O)N(C)[C@@H](CC(C)(C)C)C(=O)N(C)[C@H](C(=O)N(C)C)CC(=O)N1C [PP2706] | A (a compound having 10 or more and less than 20 is denoted as A) | B (a compound having 3 or more and less than 10 is denoted as B)
9 | CCCOC[C@H]1C(=O)N[C@@H]([C@@H](C)CC)C(=O)N(C)CC(=O)N(C)[C@H]2C/C=C\CCN(C2=O)[C@@H](Cc2ccc(C)cc2)C(=O)N(C)CC(=O)N[C@@H](CCc2cc(F)c(C(F)(F)F)c(F)c2)C(=O)N2C[C@H](OCC)C[C@H]2C(=O)NC2(CC(C)(C)C2)C(=O)N(C)[C@@H](CC(C)(C)C)C(=O)N(C)[C@H](C(=O)N(C)C)CC(=O)N1C [PP2708] | A (a compound having 10 or more and less than 20 is denoted as A) | A (a compound having 10 or more and less than 20 is denoted as A)
10 | CCC[C@H]1C(=O)N[C@@H]([C@@H](C)CC)C(=O)N(C)CC(=O)N(C)[C@H]2C/C=C\CCN(C2=O)[C@@H](Cc2ccc(C)cc2)C(=O)N(C)CC(=O)N[C@@H](CCc2ccc(C(F)(F)F)c(OC)c2)C(=O)N2C[C@H](OCC)C[C@H]2C(=O)NC2(CC(C)(C)C2)C(=O)N(C)[C@@H](CC(C)(C)C)C(=O)N(C)[C@H](C(=O)N(C)C)CC(=O)N1C [PP2710] | B (a compound having 3 or more and less than 10 is denoted as B) | B (a compound having 3 or more and less than 10 is denoted as B)
11 | CCCOC[C@H]1C(=O)N[C@@H]([C@@H](C)CC)C(=O)N(C)CC(=O)N(C)[C@H]2C/C=C\CCN(C2=O)[C@@H](Cc2ccc(C)cc2)C(=O)N(C)CC(=O)N[C@@H](CCc2ccc(C(F)(F)F)c(OC)c2)C(=O)N2C[C@H](OCC)C[C@H]2C(=O)NC2(CC(C)(C)C2)C(=O)N(C)[C@@H](CC(C)(C)C)C(=O)N(C)[C@H](C(=O)N(C)C)CC(=O)N1C [PP2712] | A (a compound having 10 or more and less than 20 is denoted as A) | B (a compound having 3 or more and less than 10 is denoted as B)

Reference: patent publication US20250230193A1, “CYCLIC COMPOUND HAVING SELECTIVE KRAS INHIBITORY EFFECT ON HRAS AND NRAS” (CHUGAI SEIYAKU KABUSHIKI KAISHA, priority 2022, published 2025)
